In PubChem BioAssay (NCI) one finds TGI data, which are given here for 8 compounds.

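Interpolation was linear, between the two tested concentrations surrounding the appropriate level; five concentrations were tested over 48 hours in 96-well plates. At the TGI there is no net growth.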

Holding throughout (test): DTP human tumour cell line panel, 48 h
Assay [1] deals with SW-620 colon.
Assay [2] deals with NCI-H522 lung.
Assay [3] has as its system SK-OV-3 ovarian.
For assay [4], the system named is SK-MEL-2 melanoma.
Assay [5] relates to HT29 colon.
Assay [6] relates to UO-31 renal.
The subject of assay [7] is SF-539 CNS.
The subject of assay [8] is NCI-H460 lung.
The test system of assay [9] is OVCAR-3 ovarian.
The test system of assay [10] is CCRF-CEM leukemia.
The test system of assay [11] is IGROV1 ovarian.
Assay [12] deals with OVCAR-8 ovarian.
Assay [13] concerns NCI/ADR-RES ovarian.
The subject of assay [14] is KM12 colon.
The test system of assay [15] is SNB-75 CNS.
Assay [16] relates to M14 melanoma.
Assay [17] deals with HCT-15 colon.
Assay [18] concerns SK-MEL-28 melanoma.
In assay [19] the test system is A498 renal.

Broadly, the TGI is the concentration giving total growth inhibition.

In the case of `COC(=O)C1=C(C)NC(C)=C(C(=O)OC)C1c1ccc(N=O)cc1`, the TGI in [1] came out at 12.9 µM; in [2], 6.61 µM; in assay [3], 25.5 µM; in [4], 28.2 µM; in assay [5], 40.8 µM; in assay [6], 26.3 µM. Besides, the concentration for total growth inhibition (TGI) was 32 µM in assay [7]; 41.9 µM in [8]; 26.9 µM in [9]; greater than 100 µM in assay [10]; 30.1 µM in assay [11]; 21.7 µM in [12]. Also, the TGI came to 50.9 µM in assay [13]; 33.4 µM in assay [14]; 26.1 µM in assay [15]; 23.3 µM in [16]; 23.9 µM in assay [17]; 33.4 µM in assay [18].

With `O=C(O)[C@H](Cc1ccccc1)NCCN1CCC[C@H]1C(=O)O`, the TGI in assay [1], in [19], in assay [2], in assay [3], in [4] and in [5] was greater than 100 µM each time. Also, the TGI in assay [6], in assay [7], in assay [8], in assay [9], in assay [12] and in assay [13] was greater than 100 µM each time. Besides, the TGI in assay [14], in assay [16], in assay [17] and in assay [18] was greater than 100 µM throughout.

Consider `CC(=O)OCC1OC(O[C@@H]2C[C@H]3C(C)(C)[C@@H](OC(C)=O)CC[C@]3(C)[C@H]3CC[C@]45C[C@]4(CC[C@H]5[C@@H](C)C[C@@H](O)[C@H](O)C(C)(C)F)[C@@]32C)C(O)C(O)C1O` (stereo partly specified), for which the total growth inhibition concentration (TGI) in assay [1] was 4.85 µM; in assay [19], 76.5 µM; in [2], 4.82 µM; in assay [3], greater than 100 µM; in [5] it was 3.05 µM; in [7], 3.51 µM. The total growth inhibition concentration (TGI) in [8] was greater than 100 µM; in [9] it was greater than 100 µM; in [10] it was 3.57 µM; in assay [11], 4.45 µM; in assay [12], 6.1 µM; in assay [13], 29.6 µM. Besides, the total growth inhibition concentration (TGI) in assay [14] is greater than 100 µM; in [16], 3.28 µM; in assay [17] it was 5.94 µM; in assay [18], 3.3 µM.

In the case of `O=C1OC(C2(O)OC(=O)c3ccccc32)c2ccccc21` (stereo unspecified), the TGI in assay [1], in [19], in assay [2], in assay [3], in [4] and in assay [5] was greater than 100 µM each time. Besides, the TGI in assay [6], in assay [7], in [8], in assay [9], in [11] and in assay [12] was greater than 100 µM each time. The TGI in assay [13], in assay [14], in assay [15], in assay [16], in [17] and in [18] was greater than 100 µM in each case.

For `CC(C)(C)OC(=O)NCCNCCNc1ccccc1`, the concentration for total growth inhibition (TGI) in assay [1], in assay [2], in assay [3], in [4], in assay [5] and in assay [6] was greater than 100 µM in each case. Moreover, the TGI in [7], in assay [8], in assay [9], in assay [10], in [11] and in assay [12] was greater than 100 µM each time. Also, the total growth inhibition concentration (TGI) in [13], in [14], in assay [15], in [16], in assay [17] and in [18] was greater than 100 µM in each case.

`Nc1ccc(C23CC4CC(C2)CC(c2ccc(N)cc2)(C4)C3)cc1`: the TGI in [1] is 28 µM; in assay [19] it was 47.4 µM; in assay [4], greater than 100 µM; in assay [6], greater than 100 µM; in assay [7], 31.1 µM; in assay [8], greater than 100 µM. Further, the TGI in [9] is greater than 100 µM; in assay [10], 29.7 µM; in assay [11], greater than 100 µM; in assay [12], greater than 100 µM; in assay [13], greater than 100 µM; in assay [14] it was greater than 100 µM. Moreover, the total growth inhibition concentration (TGI) in [16] was 85.5 µM; in assay [17], greater than 100 µM; in [18], greater than 100 µM.

For the compound `O=C1c2ccccc2C2C1C(c1ccccc1)C1(Cc3ccccc3C1=O)C2c1ccccc1` (stereo unspecified), the total growth inhibition concentration (TGI) in assay [1], in [2], in assay [3], in [4], in [5] and in assay [6] was greater than 100 µM in each case. Besides, the total growth inhibition concentration (TGI) in [7], in assay [8], in [9], in assay [10], in assay [11] and in assay [12] was greater than 100 µM throughout. In addition, the TGI in assay [13], in [14], in assay [15], in assay [16], in [17] and in assay [18] was greater than 100 µM in each case.

Consider `Oc1c(Br)cc(/C=C/c2cccc(/C=C/c3cc(Br)c(O)c(Br)c3)n2)cc1Br`, for which the TGI worked out at 50.6 µM in [1]; 25 µM in [19]; 62.9 µM in [3]; 20.1 µM in assay [4]; 25.1 µM in assay [5]; 28.4 µM in [6]. Besides, the concentration for total growth inhibition (TGI) in [7] came to 26.6 µM; in assay [8], 11.3 µM; in assay [9], 31.1 µM; in [11], 27.7 µM; in assay [12], 41.7 µM; in assay [13] it was 85.6 µM. Also, the concentration for total growth inhibition (TGI) in [14] turned out to be 25.2 µM; in assay [15], 31.6 µM; in [16], 34.9 µM; in assay [17], 26.3 µM; in assay [18], 58.6 µM.
